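All cell lines were grown in 96-well plates and treated with compound for 48 hours. GI50 is the concentration that inhibits growth by half. The concentration for full growth arrest is given as TGI.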
How the values were obtained:
Experiment in all cases: NCI-60 cell line screen, 48 h
SNB-75 CNS = system: SNB-75 CNS
TK-10 renal = system: TK-10 renal
CCRF-CEM leukemia = system: CCRF-CEM leukemia
DU-145 prostate = system: DU-145 prostate
SK-OV-3 ovarian = system: SK-OV-3 ovarian
HL-60(TB) leukemia = system: HL-60(TB) leukemia
HCT-15 colon = system: HCT-15 colon
RPMI-8226 leukemia = system: RPMI-8226 leukemia
SF-268 CNS = system: SF-268 CNS
SN12C renal = system: SN12C renal

SMILES	GI50 (SNB-75 CNS) [µM]	TGI (SNB-75 CNS) [µM]	GI50 (TK-10 renal) [µM]	TGI (TK-10 renal) [µM]	GI50 (CCRF-CEM leukemia) [µM]	TGI (CCRF-CEM leukemia) [µM]	GI50 (DU-145 prostate) [µM]	TGI (DU-145 prostate) [µM]	GI50 (SK-OV-3 ovarian) [µM]	TGI (SK-OV-3 ovarian) [µM]	GI50 (HL-60(TB) leukemia) [µM]	TGI (HL-60(TB) leukemia) [µM]	GI50 (HCT-15 colon) [µM]	TGI (HCT-15 colon) [µM]	GI50 (RPMI-8226 leukemia) [µM]	TGI (RPMI-8226 leukemia) [µM]	GI50 (SF-268 CNS) [µM]	TGI (SF-268 CNS) [µM]	GI50 (SN12C renal) [µM]	TGI (SN12C renal) [µM]
O=C(Nc1cccc(Cl)c1Cl)c1cccc(NC2=C(Cl)C(=O)N(Cc3ccccc3)C2=O)c1	> 100	> 100	> 100	> 100	14	> 100	21.2	> 100	> 100	> 100	10.5	30.7	52.1	> 100	7.96	35.1	27.7	> 100	30.2	> 100
COc1ccc(/C=c2/sc3n(c2=O)C(c2ccc(OC)c(OC)c2)C2=C(N=3)c3cc(F)ccc3OC2)cc1 (stereo unspecified)	16.1	98.2	29	> 87.6	> 55.7	> 100	43.3	> 100	> 57	> 100	33.1	> 94.6	22.2	> 83	> 25	99.7	15.5	> 100	3.45	> 54.9
CC(=O)O[C@@H]1C[C@]2(C(C)C)O[C@@]1(C)[C@@H]1CCC(C)=C1[C@@H]2OC(=O)/C=C/c1ccccc1	27.9	> 100	93.2	> 100	31.3	> 100	70.1	> 100	71.3	> 100	25.1	> 100	32.7	> 100	9.63	57.4	35.1	> 100	10.4	> 100
NC(N)=N/N=C/c1cc(Cl)cc(Cl)c1O		89.1		> 100		> 100		> 100		> 100		> 100		58.9		> 100		> 100		> 100
NC(=O)C(=CNc1nc(-c2ccc(Cl)c(Cl)c2)cs1)C(N)=O	> 100	> 100	> 100	> 100	20.4	> 100	> 100	> 100	> 100	> 100	42.8	> 100	84.7	> 100	40.4	> 100	71.7	> 100	> 100	> 100
Cc1ccc(Nc2nc(N)c(C(=O)c3ccc(C#N)cc3)s2)cc1	0.241	8.11	10.4	> 78.8	0.398	> 100	0.675	> 100	0.449	46	0.288	> 61.7	0.202	> 100	0.56	> 100	2.59	> 95.9	0.617	> 100
COc1cc(/C=C2\C(=O)Nc3ccc(F)cc32)cc(OC)c1OC	9.18	79.3	68.5	> 100	23.3	> 100	18.4	> 100	> 100	> 100	8.39	> 100	14.9	> 100	56.8	> 100	28.3	> 100	51.8	> 100
O=C(O)c1cc(O)c2c(c1)C(C1c3cc(C(=O)O)cc(O)c3C(=O)c3c(OC4OC(CO)C(O)C(O)C4O)cccc31)c1cccc(OC3OC(CO)C(O)C(O)C3O)c1C2=O (stereo unspecified)	> 100	> 100	> 100	> 100	> 100	> 100	> 100	> 100	> 100	> 100	> 100	> 100	> 100	> 100			> 100	> 100	> 100	> 100
Cc1n(Cc2ccc3ccccc3c2)cc[n+]1Cc1ccc2ccccc2c1	0.626	6.14	1.77	5.1	1.87	7.19	1.87	12.1	1.81	7.38	0.427	2.01	11.3	25.1	0.405	1.89	1.14	8.69	1.22	10.2
O=C(N/N=C\c1cc(Br)ccc1O)c1ccncc1	4.83	51.1			0.423	> 100	2.53	> 100	4.79	> 100	1.28	5.57	0.563	> 100	3.08	> 100	1.4	> 100	4.63	> 100
c1ccc2c3ccn4cc5c(cc4c-3nc2c1)CCCC5	3.12	12.3	12.8	26	3.52	> 100	2.31	10.5	3.41	10.5	0.81	3.81	24.1	> 100	5.11	> 100		14.4	3.57	16.2
O=c1[nH]c2cc(Cl)ccc2n1C1CCN(CCCC(c2ccc(F)cc2)c2ccc(F)cc2)CC1	1.27	2.73	1.94	3.55	2.31	6.98	1.82	3.32	1.82	3.72	2.97	14.7	1.45	2.76	0.711	3.6	1.56	2.98	1.78	3.27
CN(C)Cc1c[nH]c2c1C(=O)c1c(c(O)c3ccccc3c1O)C2=O	20	53.5	5.08	19.7	3.14	20.7	0.923	11.5	52	> 100	17.2	75.7	5.02	16.2	4.16	22.2	8.24	23.9	5.62	19.1
C#C[C@]1(O)CC[C@H]2[C@@H]3CC=C4c5sc(Nc6ccccc6)nc5CC[C@]4(C)[C@H]3CC[C@@]21C	0.858	7.41	3.79	13.2	1.1	11.3	1.87	4.71	2.37	10.6			1.69	6.47	0.309	1.6	2.19	10.1	2.86	11.1
COc1ccc(CNc2c3ccccc3nc3ccccc23)cc1OC	2.39	11.3	2.34	8.44	2.82	19.2	2.8	8.43	2.44	8.33	2.96	10	2.2	7.17	2.2	5.59	3.21	13	2.36	8.54
CCN(CC)CC(C)(C)C(=O)/C=C/c1ccc(Cl)c(Cl)c1	1.3	2.93	1.67	3.04	1.14	4.22	1.41	2.71			1.07	6.59	1.42	2.92	1.96	5.47	1.56	3.22		
O=C(CN(C1CCCCC1)C1CCCCC1)Nc1ccc(S(=O)(=O)c2ccc(NC(=O)CN(C3CCCCC3)C3CCCCC3)cc2)cc1	2.27	9.32	2.24	6.03	0.222	1.28	1.14	2.38	8.64	21.6	1.02	3.23	0.181	0.568			0.337	1.6	1.33	2.73
CCCS(=O)(=O)Nc1ccc(Nc2c3ccccc3nc3ccccc23)c(OC)c1		6.49		15.6		0.499		4.54		16.4		0.45		6.41				8.31		3.18
Cc1c[n+](Cc2ccc3ccccc3c2)cn1Cc1ccc2ccccc2c1	1.09	2.51	1.82	3.73	2.45	5.71	2.55	9.61	2.16	6.12	0.514	2.34	10.3	24.2	0.595	2.49	1.36	2.88	1.67	3.33
COc1ccccc1/C=C/c1cnccn1		> 10		> 10		> 10		> 10		> 10		> 10		> 10		> 10		> 10		> 10
Nc1nc(Nc2ccccc2)c2ncn(Cc3cc4c(cc3Br)OCO4)c2n1	0.0623	25.3	0.114	18.1	0.0431		0.184	13.7	0.0373	2.36	0.0358	1.26	0.0416	5.48	0.0497	> 52.7	0.128	45.3	0.407	> 100
Nc1nc(Br)nc2c1ncn2C1CC(O)C(CO)O1 (stereo unspecified)	> 100	> 100	> 100	> 100	0.204	> 100	44.3	> 100	> 100	> 100	0.0835		> 63.9	> 100	> 25	> 100	99.8	> 100	0.744	> 100
CCN1C(=O)N(CC)C2C1NC(=S)N2/N=C/C=C/c1cccs1 (stereo unspecified)			> 47.5	> 100	0.396	> 100	0.341	> 100	0.339	> 100	0.281	0.857	0.307	> 100	0.413	> 38.9	1.47	> 100	0.62	> 100
CC(=O)Oc1ccccc1C(=O)N=C1[Se]CCN1C(=O)c1ccccc1OC(C)=O	1.25	3	0.491	1.87	0.556	> 100	0.61	2.18	1.05	2.82	0.708	8.47			2.94	8.46	0.483	1.79		
CC(=O)c1c(CBr)n([O-])c2ccccc2[n+]1=O	14.7	29.6	5.44	16.6	2.14	8.12	12.8	25.5	22.9	71	5.49	22.6	13.6	27.7	4.9	30.5			14.1	27.3
Cc1[nH]n(-c2cccc(Cl)c2)c(=O)c1/C=C1\C=Nc2ccc(Br)cc21	1.25	3.37	2.6	5.18	2.95	9.84	5.71	> 100	2.22	4.53	4.02	33.6	5.25	> 100	3.08	22.6	5.49	26.4	2.88	11.9
N#CC1Nc2ccccc2[C@@H](O)C1O (stereo partly specified)		> 100		> 100		> 100		> 100		> 100		> 100		> 100		> 100		> 100		> 100

— PubChem BioAssay (NCI)
